Reference: patent publication US20060019268A1, “Molecular markers of cisplatin resistance in cancer and uses thereof” (Research Development Foundation, priority 2004, published 2006)

Tests used:
[1] = tested on: cells transfected with the c-myc gene; conditions: cited from earlier work
[2] = tested on: cells transfected with a metallothionein gene; conditions: cited from earlier work
KFr13 cells = experiment: Colony formation (clonogenic) assay, cisplatin sensitivity; type: cell-based, human
Description: (§1) Cells and culture. Six human ovarian carcinoma cell lines (2008, A2780, HEY, IGROV-1, KF28 and UCI 107) were used in this study. Sublines stably resistant to DDP (2008/C13*5.25, A2780/CP70, HEY C2, IGROV-1/CP, KFr13 and UCI CPR) had been prepared from each parental line by repeated in vitro exposure to DDP as previously described (Mishima et al., 2002). All cell lines were maintained in drug-free RPMI-1640 medium (GIBCO, Inc.) with 10% fetal calf serum (GIBCO, Inc.) at 37° C. in a humidified atmosphere containing 5% CO2. The degree of resistance of each subline was determined at the time RNA was harvested using a clonogenic assay with continuous drug exposure as previously described (Mishima et al., 2002).
(§2) Cisplatin sensitivity. Colony formation assays were used to determine the sensitivity of the 6 pairs of DDP-sensitive and resistant cell lines to the cytotoxic effect of DDP.

2008 cells = experiment: as above; type: cell-based, human; conditions: parental 2008 cells, continuous drug exposure
Description: as §1, §2

A2780 cells = experiment: as above; type: cell-based, human; conditions: parental A2780 cells, continuous drug exposure
Description: as §1, §2

UCI CPR cells = experiment: as above; type: cell-based, human
Description: as §1, §2

IGROV-1/CP cells = experiment: as above; type: cell-based, human
Description: as §1, §2

2008/C13*5.25 cells = experiment: as above; type: cell-based, human
Description: as §1, §2

KF28 cells = experiment: as above; type: cell-based, human; conditions: parental KF28 cells, continuous drug exposure
Description: as §1, §2

HEY cells = experiment: as above; type: cell-based, human; conditions: parental HEY cells, continuous drug exposure
Description: as §1, §2

IGROV-1 cells = experiment: as above; type: cell-based, human; conditions: parental IGROV-1 cells, continuous drug exposure
Description: as §1, §2

UCI 107 cells = experiment: as above; type: cell-based, human; conditions: parental UCI 107 cells, continuous drug exposure
Description: as §1, §2

HEY C2 cells = experiment: as above; type: cell-based, human
Description: as §1, §2

A2780/CP70 cells = experiment: as above; type: cell-based, human
Description: as §1, §2

Question: With `N.N.[Cl][Pt][Cl]` [Cisplatin, cis-diamminedichloroplatinum] as the molecule, how does the “level of increased resistance” value [1] read?
Answer: less than 3 fold

Question: What about the “level of increased resistance” value [2] of the same molecule?
Answer: less than 5 fold

Question: And the “Fold-resistant (ratio of IC50 values)” value (KFr13 cells; KFr13 vs KF28)?
Answer: 2.2 fold

Question: What about the IC50 (KFr13 cells; resistant KFr13 cells, colony formation, continuous drug exposure) of the same molecule?
Answer: 400 nM

Question: What about the IC50 (2008 cells) of the same molecule?
Answer: 700 nM

Question: What about the IC50 (A2780 cells) of the same molecule?
Answer: 210 nM

Question: And the “Fold-resistant (ratio of IC50 values)” value (UCI CPR cells; UCI CPR vs UCI 107)?
Answer: 8 fold

Question: And the IC50 (UCI CPR cells; resistant UCI CPR cells, colony formation, continuous drug exposure)?
Answer: 8000 nM

Question: And the “Fold-resistant (ratio of IC50 values)” value (IGROV-1/CP cells; IGROV-1/CP vs IGROV-1)?
Answer: 3.6 fold

Question: And the IC50 (IGROV-1/CP cells; resistant IGROV-1/CP cells, colony formation, continuous drug exposure)?
Answer: 1080 nM

Question: And the “Fold-resistant (ratio of IC50 values)” value (2008/C13*5.25 cells; 2008/C13*5.25 vs 2008)?
Answer: 1.6 fold

Question: What about the IC50 (2008/C13*5.25 cells; resistant 2008/C13*5.25 cells, colony formation, continuous drug exposure) of the same molecule?
Answer: 1100 nM

Question: What about the IC50 (KF28 cells) of the same molecule?
Answer: 180 nM

Question: What about the IC50 (HEY cells) of the same molecule?
Answer: 760 nM

Question: What about the IC50 (IGROV-1 cells) of the same molecule?
Answer: 300 nM

Question: What about the IC50 (UCI 107 cells) of the same molecule?
Answer: 1000 nM

Question: And the “Fold-resistant (ratio of IC50 values)” value (HEY C2 cells; HEY C2 vs HEY)?
Answer: 6.1 fold

Question: And the IC50 (HEY C2 cells; resistant HEY C2 cells, colony formation, continuous drug exposure)?
Answer: 4600 nM

Question: What about the “Fold-resistant (ratio of IC50 values)” value (A2780/CP70 cells; A2780/CP70 vs A2780) of the same molecule?
Answer: 11.9 fold

Question: What about the IC50 (A2780/CP70 cells; resistant A2780/CP70 cells, colony formation, continuous drug exposure) of the same molecule?
Answer: 2500 nM
